Measurements reported in BigSolDB 2.1.

SMILES: O=P(CCCO)(CCCO)CCCO
- solubility (mole fraction) (in acetone, 293.15 K): 0.0007
- solubility (mole fraction) (in acetone, 298.14 K): 0.00101
- solubility (mole fraction) (in acetone, 303.16 K): 0.00151
- solubility (mole fraction) (in acetone, 308.21 K): 0.00217
- solubility (mole fraction) (in acetone, 313.17 K): 0.00303
- solubility (mole fraction) (in acetone, 318.12 K): 0.00425
- solubility (mole fraction) (in acetone, 323.15 K): 0.00593
- solubility (mole fraction) (in ethanol, 298.12 K): 0.0226
- solubility (mole fraction) (in ethanol, 303.22 K): 0.0286
- solubility (mole fraction) (in ethanol, 308.17 K): 0.036
- solubility (mole fraction) (in ethanol, 313.1 K): 0.0456
- solubility (mole fraction) (in ethanol, 318.08 K): 0.0569
- solubility (mole fraction) (in ethanol, 323.11 K): 0.0718
- solubility (mole fraction) (in ethanol, 328.16 K): 0.0919
- solubility (mole fraction) (in isobutanol, 293.11 K): 0.0122
- solubility (mole fraction) (in isobutanol, 298.21 K): 0.0154
- solubility (mole fraction) (in isobutanol, 303.13 K): 0.019
- solubility (mole fraction) (in isobutanol, 308.15 K): 0.0234
- solubility (mole fraction) (in isobutanol, 313.17 K): 0.0291
- solubility (mole fraction) (in isobutanol, 318.14 K): 0.0357
- solubility (mole fraction) (in isobutanol, 323.23 K): 0.0436
- solubility (mole fraction) (in isopropanol, 298.13 K): 0.0155
- solubility (mole fraction) (in isopropanol, 303.21 K): 0.0187
- solubility (mole fraction) (in isopropanol, 308.15 K): 0.0224
- solubility (mole fraction) (in isopropanol, 313.17 K): 0.027
- solubility (mole fraction) (in isopropanol, 318.19 K): 0.0321
- solubility (mole fraction) (in isopropanol, 323.11 K): 0.0386
- solubility (mole fraction) (in isopropanol, 328.18 K): 0.0465
- solubility (mole fraction) (in methanol, 298.11 K): 0.0527
- solubility (mole fraction) (in methanol, 303.15 K): 0.0702
- solubility (mole fraction) (in methanol, 308.18 K): 0.091
- solubility (mole fraction) (in methanol, 313.1 K): 0.115
- solubility (mole fraction) (in methanol, 318.22 K): 0.144
- solubility (mole fraction) (in methanol, 323.14 K): 0.176
- solubility (mole fraction) (in methanol, 328.11 K): 0.21
- solubility (mole fraction) (in n-butanol, 298.13 K): 0.011
- solubility (mole fraction) (in n-butanol, 303.21 K): 0.0138
- solubility (mole fraction) (in n-butanol, 308.11 K): 0.0163
- solubility (mole fraction) (in n-butanol, 313.17 K): 0.02
- solubility (mole fraction) (in n-butanol, 318.15 K): 0.0252
- solubility (mole fraction) (in n-butanol, 323.1 K): 0.0302
- solubility (mole fraction) (in n-butanol, 328.23 K): 0.0369
- solubility (mole fraction) (in n-propanol, 298.16 K): 0.0369
- solubility (mole fraction) (in n-propanol, 303.11 K): 0.0438
- solubility (mole fraction) (in n-propanol, 308.13 K): 0.0517
- solubility (mole fraction) (in n-propanol, 313.12 K): 0.062
- solubility (mole fraction) (in n-propanol, 318.16 K): 0.0731
- solubility (mole fraction) (in n-propanol, 323.21 K): 0.0866
- solubility (mole fraction) (in n-propanol, 328.18 K): 0.102
